According to patent publication US6503934B2, “Substituted thiadiazolesulfonamides” (Aventis Pharma Deutschland GmbH, priority 1998, dated 2003):

tested on: release of IL-1β; assay: Inhibition of LPS-induced IL-1β release from isolated human mononuclear cells (enzyme immunoassay); assay type: cell-based; details: human mononuclear cells from citrate blood, lipopolysaccharide (Salmonella abortus equi) induced, 37° C. for 20 hours, IL-1β in supernatant; seven concentrations
Protocol: The mononuclear cells were concentrated from freshly obtained human citrate blood by known standard processes. See, e.g., Tiku et al., J. Immunol. 136/10 (1986) 3677.
15 ml of Lymphoprep® (Molter GmbH, Heidelberg, FRG) was carefully introduced under a layer of 10 ml of freshly prepared human citrate blood and the mixture was then centrifuged at 400×g (Minifuge®, Heraeus, Hanau, FRG) at 20° C. for 40 minutes. The cell fraction, showing as a white ring in the phase boundary, was withdrawn with the aid of a syringe, diluted 1:1 (v/v) with PM-16 buffer (Serva, Heidelberg, FRG) and centrifuged again as above for 10 minutes. The […] was taken up in 10 ml of RPMI 1640 buffer (Gibco, Berlin, FRG), to which 300 mg/I of L-glutamine, 25 mmol/l of HEPES, […] of penicillin had been added beforehand. The cell suspension, comprising about 90% lymphocytes and 10% monocytes, was adjusted to about 5 million cells/ml with the aid of a cell counter (type IT, Coulter Diagnostics, Krefeld, FRG). The cell viability was checked with the aid of the known lactate dehydrogenase method before and after the inhibition experiments. No change in the viability was found here.
The synthesis and release of cellular IL-1β was induced by adding a solution of […] of lipopolysaccharide (Salmonella abortus equi, Sigma GmbH, Deisenhofen, FRG) in 0.01 ml of dimethyl sulfoxide/water (1:10, v/v) to 0.48 ml of the cell fraction described above. At the same time, a solution of the test substance in 0.01 ml was added to the cell fraction, and the mixture was left in a commercially available incubator at 37° C. for 20 hours. After the sample had been cooled to 0° C., it was centrifuged in a bench centrifuge for 1 minute and in each case 0.025 ml aliquots of the supernatant were investigated specifically for their IL-1β content with the aid of a commercially available “sandwich” enzyme immunoassay kit (Biosource, Ratingen, FRG), in accordance with the manufacturer's instructions. The control values, without addition of the test preparation, were determined and set at 100%. In particular, any influence of dimethyl sulfoxide on the IL-1β level was excluded by corresponding comparison measurements.
The concentration range was chosen here such that it comprised the ranges from 0% inhibition (that is to say without addition of the test substance) to at least 80% inhibition. The test substance concentration which led to 50% inhibition of the release of IL-1β was determined by extrapolation from the dose-effect relationship determined by graph or mathematically.
IC50 value has been shown in Table 2 as micromoles/liter for the corresponding compounds of the formula (I) according to the invention.

Row | SMILES | IC50 [µM]
1 | O=C(O)C1CCN(S(=O)(=O)c2nc(-c3ccccc3)ns2)CC1 [Example 14] | 2
2 | O=S(=O)(Nc1ccc(Cl)cc1)c1nc(-c2ccccc2)ns1 [Example 3] | 34
3 | CCOC(=O)C1CCN(S(=O)(=O)c2nc(-c3ccccc3)ns2)CC1 [Example 12] | 2
4 | O=C(O)C1CCC(CNS(=O)(=O)c2nc(-c3ccccc3)ns2)CC1 (centres unmarked) [Example 9] | 2
5 | CN(c1ccccc1)S(=O)(=O)c1nc(-c2ccccc2)ns1 [Example 1] | 11
6 | COc1ccc(-c2nsc(S(=O)(=O)N3CCN(C)CC3)n2)cc1Cl [Example 24] | 20
7 | CN1CCN(S(=O)(=O)c2nc(-c3ccccc3)ns2)CC1 [Example 8] | 4
8 | O=S(=O)(c1nc(-c2ccccc2)ns1)N1CCOCC1 [Example 2] | 3
9 | O=C(O)[C@@H]1CCCN1S(=O)(=O)c1nc(-c2ccccc2)ns1 [Example 18] | 8
10 | O=C1CCN(S(=O)(=O)c2nc(-c3ccccc3)ns2)CC1 [Example 13] | 2
11 | C[C@H](NS(=O)(=O)c1nc(-c2ccccc2)ns1)C(=O)OCc1ccccc1 [Example 17] | 10
12 | CN1CCN(S(=O)(=O)c2nc(-c3ccc(Cl)cc3)ns2)CC1 [Example 25] | 2
13 | O=C(c1ccc(F)cc1)C1CCN(S(=O)(=O)c2nc(-c3ccccc3)ns2)CC1 [Example 20] | 12
14 | O=S(=O)(NC1CCCCC1)c1nc(-c2ccccc2)ns1 [Example 5] | 6
15 | O=S(=O)(NCc1ccccc1)c1nc(-c2ccccc2)ns1 [Example 4] | 15
16 | O=C(O)CNS(=O)(=O)c1nc(-c2ccccc2)ns1 [Example 19] | 40
17 | COC(=O)[C@H](C)NS(=O)(=O)c1nc(-c2ccccc2)ns1 [Example 7] | 2
18 | O=C(O)[C@H](Cc1ccccc1)NS(=O)(=O)c1nc(-c2ccccc2)ns1 [Example 22] | 20
19 | O=S(=O)(c1nc(-c2ccccc2)ns1)N1CCN(c2ccc(Cl)cc2)CC1 [Example 10] | 10
20 | C[C@H](NS(=O)(=O)c1nc(-c2ccccc2)ns1)C(=O)O [Example 16, (S)-2-(3-Phenyl-(1,2,4)-thiadiazole-5-sulfonylamino)propionic acid] | 10
21 | CC(=O)N1CCN(S(=O)(=O)c2nc(-c3ccccc3)ns2)CC1 [Example 15] | 2
22 | CC(C)OC(=O)[C@H](C)NS(=O)(=O)c1nc(-c2ccccc2)ns1 [Example 23] | 6
23 | O=C(O)CCNS(=O)(=O)c1nc(-c2ccccc2)ns1 [Example 21] | 6
